Source: US8076324B2, “Di(hetero)arylcyclohexane derivatives, their preparation, their use and pharmaceutical compositions comprising them” (Sanofi-Aventis, priority 2007, dated 2011)
pIC50: −log10 of the molar value.

Target: T1, myocardial ATP-sensitive potassium channel (SUR2A/Kir6.2) (UniProt Q61743+Q63563)
T1 construct: expressed in transfected cells
Assay: Rubidium efflux test on HEK293 cells transfected with SUR2A and Kir6.2 (myocardial action)
Type: cell-based, SUR2A from the rat, Kir6.2 from the mouse
Details: HEK293 cells transfected with SUR2A/Kir6.2; KATP channels opened by rilmakalim; 25 min incubation; read-out: IC50 values for the inhibition of the rubidium efflux
Protocol: 1) Action on the SUR2A/Kir6.2 potassium channel (myocardial action) The action of the compounds on the ion transport through the myocardial ATP-sensitive potassium channel (SUR2A/Kir6.2) was determined in the rubidium efflux test system described below on human embryonic kidney cells HEK293 which were transfected with the components SUR2A and Kir6.2 (cf. Weyermann et al., Naunyn-Schmiedeberg's Arch. Pharmacol. 369, 374-381 (2004)).
The HEK293 cells were cultured at 37° C. in a humidified air atmosphere with 7% carbon dioxide in minimal essential medium with Earle's salts and L-glutamine (MEM, Gibco), which was supplemented with 10% fetal calf serum and zeozin (0.36 mg/ml) and geneticin (0.75 mg/ml). The transfection of the cells and the preparation of a cell line with stable expression of Kir6.2 from the mouse (accession number AF037313) and SUR2A from the rat (accession number D83598/L40624) were carried out as described in Giblin et al., J. Biol. Chem. 274, 22652-22659 (1999).
60 000 transfected cells per well were inoculated into a poly-D-lysine-coated 96-well microtiter plate (Greiner #650 201). After incubation for 24 h at 37° C., the cells were washed three times with buffer 1 (150 mM NaCl, 2 mM CaCl2, 0.8 mM NaH2PO4, 1 mM MgCl2, 5 mM glucose, 25 mM HEPES, pH=7.4). Subsequently, the buffer solution was replaced by 100 μl of rubidium loading buffer (buffer 1 with 5.4 mM RbCl) and the cells were incubated for a further 3 h at 37° C. The rubidium loading buffer was then removed by washing the cells three times with 200 μl each of potassium chloride wash buffer (buffer 1 with 5.4 mM KCl). After addition of the test substances (70 μl; dissolved in potassium chloride wash buffer with addition of DMSO), the KATP channels of the cells were opened by addition of 70 μl of rilmakalim (2 μM) (cf. Krause et al., Pflügers Arch. 429, 625-635 (1995)) and the cells were incubated at 37° C. for 25 min. Subsequently, the cell supernatants were transferred to a new 96-well microtiter plate and the cells were lyzed by addition of 200 μl of lysis buffer (buffer 1 with 1% Triton X-100). The concentrations of Rb^+ in the cell supernatant and in the cell lyzate were measured by means of atomic absorption spectroscopy using an Al 1200 apparatus (Aurora Instruments Ltd.).
The Rb^+ efflux rate was calculated as [Rb^+SN]/[Rb^+total], wherein [Rb^+SN] is the amount of Rb^+ in the cell supernatant and [Rb^+total] is the sum of the amounts of Rb^+ in the cell supernatant and cell lyzate. IC50 values for the inhibition of the rubidium efflux were calculated with the aid of the Hill equation.

T1 sequence (Q63563 whole entry): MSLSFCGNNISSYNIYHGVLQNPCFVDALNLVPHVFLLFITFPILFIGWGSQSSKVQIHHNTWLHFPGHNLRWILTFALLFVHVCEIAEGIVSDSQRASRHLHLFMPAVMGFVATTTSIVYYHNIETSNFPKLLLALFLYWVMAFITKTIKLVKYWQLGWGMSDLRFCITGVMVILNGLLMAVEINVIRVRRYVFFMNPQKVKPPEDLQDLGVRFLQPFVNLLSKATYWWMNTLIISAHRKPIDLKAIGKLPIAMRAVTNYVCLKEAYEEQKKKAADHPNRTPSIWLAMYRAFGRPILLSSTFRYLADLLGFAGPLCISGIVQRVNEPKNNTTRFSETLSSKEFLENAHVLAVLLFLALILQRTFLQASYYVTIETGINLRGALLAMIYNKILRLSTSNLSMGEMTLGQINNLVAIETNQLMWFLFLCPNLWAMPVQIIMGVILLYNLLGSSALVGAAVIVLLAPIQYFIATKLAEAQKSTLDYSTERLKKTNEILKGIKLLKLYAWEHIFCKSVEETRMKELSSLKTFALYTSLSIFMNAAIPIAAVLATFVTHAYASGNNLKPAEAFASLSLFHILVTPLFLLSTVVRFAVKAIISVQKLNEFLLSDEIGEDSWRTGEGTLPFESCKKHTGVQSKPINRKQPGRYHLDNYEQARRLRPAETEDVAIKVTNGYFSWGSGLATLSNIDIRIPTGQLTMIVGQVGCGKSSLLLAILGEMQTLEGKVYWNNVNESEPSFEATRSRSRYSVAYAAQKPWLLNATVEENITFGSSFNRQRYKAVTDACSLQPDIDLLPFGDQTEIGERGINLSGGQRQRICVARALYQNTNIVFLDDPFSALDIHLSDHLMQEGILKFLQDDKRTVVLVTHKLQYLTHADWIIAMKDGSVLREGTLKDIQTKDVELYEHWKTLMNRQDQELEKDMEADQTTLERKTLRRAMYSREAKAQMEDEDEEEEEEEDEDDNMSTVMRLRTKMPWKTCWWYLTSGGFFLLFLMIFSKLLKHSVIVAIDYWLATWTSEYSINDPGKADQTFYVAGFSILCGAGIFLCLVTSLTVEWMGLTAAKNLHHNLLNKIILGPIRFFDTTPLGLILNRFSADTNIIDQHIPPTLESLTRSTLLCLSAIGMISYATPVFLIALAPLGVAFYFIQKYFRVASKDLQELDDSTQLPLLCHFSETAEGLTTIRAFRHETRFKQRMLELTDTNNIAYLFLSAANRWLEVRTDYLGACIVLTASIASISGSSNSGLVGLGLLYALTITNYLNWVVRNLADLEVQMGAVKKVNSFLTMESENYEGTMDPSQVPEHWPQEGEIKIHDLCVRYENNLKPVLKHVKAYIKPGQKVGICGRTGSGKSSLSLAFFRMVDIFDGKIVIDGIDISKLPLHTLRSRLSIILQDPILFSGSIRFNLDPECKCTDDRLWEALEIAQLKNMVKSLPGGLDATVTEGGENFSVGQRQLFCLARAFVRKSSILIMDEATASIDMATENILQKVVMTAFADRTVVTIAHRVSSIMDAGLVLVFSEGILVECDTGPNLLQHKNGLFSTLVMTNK
T1 sequence (Q61743 whole entry): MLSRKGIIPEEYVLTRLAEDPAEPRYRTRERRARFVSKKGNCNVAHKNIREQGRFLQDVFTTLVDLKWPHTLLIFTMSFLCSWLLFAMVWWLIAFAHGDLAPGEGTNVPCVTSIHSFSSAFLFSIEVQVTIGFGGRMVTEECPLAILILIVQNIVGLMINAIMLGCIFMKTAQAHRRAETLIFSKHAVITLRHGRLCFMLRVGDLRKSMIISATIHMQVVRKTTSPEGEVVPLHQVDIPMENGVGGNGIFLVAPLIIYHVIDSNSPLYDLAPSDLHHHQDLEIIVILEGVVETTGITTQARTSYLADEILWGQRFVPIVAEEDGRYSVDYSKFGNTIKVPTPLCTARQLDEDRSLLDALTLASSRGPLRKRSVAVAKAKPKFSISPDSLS

Structure (SMILES)	pIC50
O=C(O)[C@]1(c2ccccc2)CC[C@](OCC2CC2)(c2nc(C3CC3)n(CC3CC3)n2)CC1 [Example 296-2, Trans-4-(5-Cyclopropyl-1-cyclopropylmethyl-1H-[1,2,4]triazol-3-yl)-4-cyclopropylmethoxy-1-phenylcyclohexanecarboxylic Acid]	> 6.00
CCOC1(c2ccccc2S(C)(=O)=O)CCC(C(=O)O)(c2ccccc2)CC1 (stereo not drawn) [Example 173]	> 6.00
O=C(O)[C@]1(c2ccc(F)cc2)CC[C@@](OCC2CC2)(c2ccc(F)cn2)CC1 [Example 263, Cis-4-Cyclopropylmethoxy-1-(4-fluorophenyl)-4-(5-fluoropyridin-2-yl)cyclohexanecarboxylic Acid]	> 6.00
Cc1nc([C@]2(OCC3CC3)CC[C@](C(=O)O)(c3ccccc3)CC2)n(CC2CC2)c1C [Example 377]	> 6.00
COC1(c2ccccc2S(C)(=O)=O)CCC(C(=O)O)(c2ccccc2)CC1 (stereo not drawn) [Example 172]	> 6.00
O=C(O)C1(c2ccccc2)CCC(O)(c2ccc(C(F)(F)F)cc2F)CC1 (stereo not drawn) [Example 103]	> 6.00
COC1(c2ccc(C)c(F)c2)CCC(C(=O)O)(c2ccccc2)CC1 (stereo not drawn) [Example 123]	> 6.00
COC1(c2cccc(F)c2)CCC(C(=O)O)(c2ccccc2)CC1 (stereo not drawn) [Example 119]	> 6.00
CC(C)CCO[C@]1(c2nccn2CC2CC2)CC[C@@](C(=O)O)(c2ccc(F)cc2)CC1 [Example 370]	> 6.00
O=C(O)C1(c2ccccc2)CCC(OCC2CC2)(c2cccc(C3CC3)c2)CC1 (stereo not drawn) [Example 182, 4-Cyclopropylmethoxy-4-(3-cyclopropylphenyl)-1-phenylcyclohexanecarboxylic Acid]	> 6.00
Cc1nc([C@]2(OCC3CC3)CC[C@@](C(=O)O)(c3ccc(F)cc3)CC2)n(CC2CC2)c1Br [Example 369]	> 6.00
Cc1nc([C@]2(OCCC(C)C)CC[C@](C(=O)O)(c3ccc(F)cc3)CC2)n(CC2CC2)c1C [Example 372]	> 6.00
COC1(c2ccc(F)cc2)CCC(C(=O)O)(c2ccccc2)CC1 (stereo not drawn) [Example 92, 4-(4-Fluorophenyl)-4-methoxy-1-phenylcyclohexanecarboxylic Acid]	> 6.00
COC1(c2cccc(F)c2F)CCC(C(=O)O)(c2ccccc2)CC1 (stereo not drawn) [Example 120]	> 6.00
Cc1c(Br)nc([C@]2(OCC3CC3)CC[C@](C(=O)O)(c3ccccc3)CC2)n1CC1CC1 [Example 373]	> 6.00
O=C(O)[C@]1(c2ccc(F)cc2)CC[C@@](OCC2CC2)(c2nccn2CC2CC2)CC1 [Example 364]	> 6.00
O=C(O)[C@]1(c2ccccc2)CC[C@](OCC2CC2)(c2nc(-c3ccccc3)n(CC3CC3)n2)CC1 [Example 270, Trans-4-Cyclopropylmethoxy-4-(1-cyclopropylmethyl-5-phenyl-1H-[1,2,4]triazol-3-yl)-1-phenylcyclohexanecarboxylic Acid]	> 6.00
Cc1c(F)cc([C@]2(OCC3CC3)CC[C@](C(=O)O)(c3ccc(F)cc3)CC2)cc1S(=O)(=O)C(C)(C)C [Example 304-2, Cis-4-Cyclopropylmethoxy-4-[3-fluoro-4-methyl-5-(2-methylpropane-2-sulfonyl)phenyl]-1-(4-fluorophenyl)cyclohexanecarboxylic Acid]	> 6.00

Structure (SMILES)	pIC50
COC1(c2ccc(F)cc2)CCC(C(=O)O)(c2ccccc2F)CC1 (stereo not drawn) [Example 235]	> 6.00
Cc1nc([C@]2(OCCC(C)C)CC[C@](C(=O)O)(c3ccccc3)CC2)n(CC2CC2)c1C [Example 376]	> 6.00
Cc1cn(CC2CC2)c([C@]2(OCC3CC3)CC[C@](C(=O)O)(c3ccc(F)cc3)CC2)n1 [Example 368]	> 6.00
C=Cc1ccccc1C1(OC)CCC(C(=O)O)(c2ccccc2)CC1 (stereo not drawn) [Example 135]	> 6.00
CS(=O)(=O)c1ccccc1C1(OCC2CC2)CCC(C(=O)O)(c2ccc(F)cc2)CC1 (stereo not drawn) [Example 254]	> 6.00
CCCOC1(c2ccc(F)cc2)CCC(C(=O)O)(c2ccccc2)CC1 (stereo not drawn) [Example 148]	> 6.00
CSc1cc(F)ccc1C1(OCC2CC2)CCC(C(=O)O)(c2ccc(F)cc2)CC1 (stereo not drawn) [Example 243]	> 6.00
COC1(c2ccc(F)cc2)CCC(C(=O)O)(c2cccc(F)c2)CC1 (stereo not drawn) [Example 234]	> 6.00
COC1(c2cccc(C(F)(F)F)c2)CCC(C(=O)O)(c2ccccc2)CC1 (stereo not drawn) [Example 125]	> 6.00
O=C(O)C1(c2ccccc2)CCC(O)(c2ccc(Cl)c(C(F)(F)F)c2)CC1 (stereo not drawn) [Example 104]	> 6.00
O=C(O)[C@]1(c2ccccc2)CC[C@@](OCC2CC2)(c2ccc(F)cn2)CC1 [Example 267, Cis-4-Cyclopropylmethoxy-4-(5-fluoropyridin-2-yl)-1-phenylcyclohexanecarboxylic Acid]	> 6.00
CCCOC1(c2ccccc2S(C)(=O)=O)CCC(C(=O)O)(c2ccccc2)CC1 (stereo not drawn) [Example 174]	> 6.00
O=C(O)C1(c2ccccc2)CCC(OCC2CC2)(c2ccc(F)cc2)CC1 (stereo not drawn) [Example 150]	> 6.00
COC1(c2ccc(C(F)(F)F)cc2)CCC(C(=O)O)(c2ccccc2)CC1 (stereo not drawn) [Example 124]	> 6.00
COC1(c2ccc(F)cc2)CCC(C(=O)O)(c2cccc(OC(F)(F)F)c2)CC1 (stereo not drawn) [Example 237]	> 6.00
Cc1ccc(C2(O)CCC(C(=O)O)(c3ccccc3)CC2)cc1F (stereo not drawn) [Example 100]	> 6.00
O=C(O)C1(c2ccccc2)CCC(O)(c2ccc(F)cc2F)CC1 (stereo not drawn) [Example 95]	> 6.00

Next, values leading:

pIC50	Structure (SMILES)
> 6.00	O=C(O)[C@]1(c2ccccc2)CC[C@](OCC2CC2)(c2nc3cc(Cl)ccc3n2CC2CC2)CC1 [Example 451]
> 6.00	Cc1ccc([C@]2(C(=O)O)CC[C@](OCC3CC3)(c3nc4ccccc4n3CC3CC3)CC2)cc1 [Example 412]
> 6.00	Cc1nc([C@]2(OCC3CC3)CC[C@](C(=O)O)(c3cccnc3)CC2)n(CC2CC2)c1Cl [Example 407]
> 6.00	Cc1c(Br)nc([C@]2(Oc3ccccc3)CC[C@@](C(=O)O)(c3ccc(F)cc3)CC2)n1CC1CC1 [Example 404]
> 6.00	O=C(O)[C@]1(c2ccccc2)CC[C@@](OCC2CC2)(c2nc3cc(F)ccc3n2CC2CC2)CC1 [Example 452]
> 6.00	O=C(O)[C@]1(c2ccccc2)CC[C@](Oc2ccccc2)(c2nc(-c3ccccc3)nn2CC2CC2)CC1 [Example 466]
> 6.00	O=C(O)[C@]1(c2ccccc2)CC[C@](OCC2CC2)(c2nc(C(F)(F)F)cn2CC2CC2)CC1 [Example 381]
> 6.00	CCCn1c(Cl)c(C)nc1[C@]1(OCCOC)CC[C@](C(=O)O)(c2ccccc2)CC1 [Example 390]
> 6.00	CS(=O)(=O)c1cccc2nc([C@]3(OCC4CC4)CC[C@](C(=O)O)(c4ccccc4)CC3)n(CC3CC3)c12 [Example 455]
> 6.00	O=C(O)[C@]1(c2ccccc2)CC[C@@](OCC2CC2)(c2ccnc(-c3ccccc3)c2)CC1 [Example 488, Cis-4-Cyclopropylmethoxy-1-phenyl-4-(2-phenylpyridin-4-yl)cyclohexanecarboxylic Acid]
> 6.00	CC(C)c1nc([C@]2(OCC3CC3)CC[C@](C(=O)O)(c3ccccc3)CC2)n(CC2CC2)c1Cl [Example 394]
> 6.00	Cc1c(F)cc([C@]2(OCC3CC3)CC[C@](C(=O)O)(c3ccccc3)CC2)cc1S(C)(=O)=O [Example 482, Cis-4-Cyclopropylmethoxy-4-(3-fluoro-5-methanesulfonyl-4-methylphenyl)-1-phenylcyclohexanecarboxylic Acid]
> 6.00	O=C(O)[C@]1(c2ccccc2)CC[C@@](OCC2CC2)(c2nc(Cl)c(Cl)n2CC2CC2)CC1 [Example 387]
> 6.00	O=C(O)[C@]1(c2ccccc2)CC[C@](OCC2CC2)(c2ccnc(-c3ccccc3)c2)CC1 [Example 489, Trans-4-Cyclopropylmethoxy-1-phenyl-4-(2-phenylpyridin-4-yl)cyclohexanecarboxylic Acid]
> 6.00	O=C(O)[C@]1(c2ccccc2)CC[C@@](OCC2(c3ccccc3)COC2)(c2nccn2CC2CC2)CC1 [Example 497, 4-(1-Cyclopropylmethyl-1H-imidazol-2-yl)-1-phenyl-4-(3-phenyloxetan-3-ylmethoxy)cyclohexanecarboxylic Acid]
> 6.00	Cc1c(Cl)nc([C@]2(OCC3CC3)CC[C@](C(=O)O)(c3ccccc3)CC2)n1CC1CC1 [Example 383]
